Results published in ChEMBL document CHEMBL1122732, “Vitamin K dependent carboxylation: synthesis and biological properties of tetrazolyl analogues of pentapeptidic substrates” (J Med Chem, 1984).

What was measured:
[1] = (§1) Compound were evaluated for its binding affinity against vitamin K dependent carboxylation
[2] = as §1; remark: listed apart in the source

Molecule | Ki [1] [mM] | Km [2] [µM]
CC(C)C[C@H](NC(=O)[C@@H](N)Cc1ccccc1)C(=O)N[C@@H](CCc1nn[nH]n1)C(=O)N[C@@H](CCc1nn[nH]n1)C(=O)N[C@H](C(=O)O)C(C)C | 3.1 | 
CC(C)C[C@H](NC(=O)[C@@H](N)Cc1ccccc1)C(=O)N[C@@H](CCC1N=NN=N1)C(=O)N[C@@H](CCC1N=NN=N1)C(=O)N[C@H](C(=O)O)C(C)C | 3 | 3000
H-FLEEV-OH | 20 | 
